Assay results as given in patent US11136283B2, “Recovering and purifying resveratrol produced by microbial fermentation” (EVOLVA SA, priority 2017, dated 2021).
“And” between values parts separate entries of the source, which are not always exact repeats. Identical values can stand only once.

Experiment: Stability of resveratrol in ultrafiltration filtrates concentrated by reverse osmosis and held at pH 11
Type: physicochemical
Conditions: held at pH 11 for 3 to 7 days at 5° C. to 8° C., at production vs 7 days after
Method: It is advantageous for process intermediate materials to have a high degree of stability, so that they can be processed over time without the need for immediate processing on equipment with high capacity. The various filtrates from the ultrafiltration tests were concentrated by reverse osmosis and held at pH 11 for 3 to 7 days at 5° C. to 8° C. to evaluate their stability. The product decomposition is a comparison between the composition at the time of production and that measured 7 days after production. The stability improved monotonically as the molecular weight cutoff of the ultrafilter was decreased from 100 kDa to 25 kDa to 5 kDa. 11%, 7%, and 5% of the resveratrol was decomposed in the respective tests.

Product Decomposition (filtrate from GR40PP 100 kDa ultrafilter, broth EFSC4687): 11.5%
Product Decomposition (filtrate from GR40PP 100 kDa ultrafilter, broth EFSC 21811): 11% and 10.7%
Product Decomposition (filtrate from GR60PP 25 kDa ultrafilter): 7%
Product Decomposition (filtrate from GR90PP 5 kDa ultrafilter): 5%
Compound: Oc1ccc(/C=C/c2cc(O)cc(O)c2)cc1 [resveratrol, 3,5,4′-trihydroxy-trans-stilbene]
